Test [1] deals with T1, Tyrosine-protein kinase JAK3 (Homo sapiens, UniProt P52333).
T1 sequence (P52333 whole entry): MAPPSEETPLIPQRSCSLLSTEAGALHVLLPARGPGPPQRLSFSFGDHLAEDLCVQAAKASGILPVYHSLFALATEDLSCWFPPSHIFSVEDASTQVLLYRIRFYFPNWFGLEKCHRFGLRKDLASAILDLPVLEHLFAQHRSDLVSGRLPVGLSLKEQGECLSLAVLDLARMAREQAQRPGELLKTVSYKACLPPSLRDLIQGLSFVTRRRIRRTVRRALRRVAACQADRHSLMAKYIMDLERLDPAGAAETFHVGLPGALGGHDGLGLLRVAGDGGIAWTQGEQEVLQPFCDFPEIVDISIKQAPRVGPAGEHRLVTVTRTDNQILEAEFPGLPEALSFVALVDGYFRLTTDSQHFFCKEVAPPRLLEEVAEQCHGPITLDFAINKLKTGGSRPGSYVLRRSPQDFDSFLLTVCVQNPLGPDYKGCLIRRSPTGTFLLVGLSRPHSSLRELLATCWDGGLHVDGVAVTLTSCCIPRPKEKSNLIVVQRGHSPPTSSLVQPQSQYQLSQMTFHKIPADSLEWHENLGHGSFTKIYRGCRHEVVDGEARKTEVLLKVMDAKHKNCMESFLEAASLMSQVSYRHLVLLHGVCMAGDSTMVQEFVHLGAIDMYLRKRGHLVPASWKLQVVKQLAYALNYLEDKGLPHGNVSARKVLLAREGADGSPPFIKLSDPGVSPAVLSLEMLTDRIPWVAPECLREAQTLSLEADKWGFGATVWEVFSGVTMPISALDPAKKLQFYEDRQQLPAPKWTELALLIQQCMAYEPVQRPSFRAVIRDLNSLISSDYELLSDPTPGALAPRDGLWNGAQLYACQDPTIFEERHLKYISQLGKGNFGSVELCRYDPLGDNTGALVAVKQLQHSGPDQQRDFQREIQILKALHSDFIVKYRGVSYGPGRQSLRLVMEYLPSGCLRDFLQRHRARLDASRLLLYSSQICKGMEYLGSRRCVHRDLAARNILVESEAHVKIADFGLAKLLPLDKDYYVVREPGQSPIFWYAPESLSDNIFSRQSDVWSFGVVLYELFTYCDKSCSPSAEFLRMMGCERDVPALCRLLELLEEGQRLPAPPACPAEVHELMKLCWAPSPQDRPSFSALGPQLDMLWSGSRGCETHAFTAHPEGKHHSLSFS
Description: Inhibition of GST-tagged recombinant human cytoplasmic JAK3 expressed in baculovirus using TK-substrate-biotin as substrate preincubated for 5 mins followed by substrate addition after 30 mins by HTRF assay

The species named for another test is Homo sapiens. The experiment in a line: Selectivity ratio of IC50 for human JAK3 expressed in baculovirus to IC50 for human JAK2 expressed in baculovirus.
Test [2] concerns the target Tyrosine-protein kinase JAK2 (Homo sapiens, UniProt O60674).
Description: Inhibition of GST-tagged recombinant human JAK2 expressed in baculovirus using TK-substrate-biotin as substrate preincubated for 5 mins followed by substrate addition after 30 mins by HTRF assay
The target of test [3] is Tyrosine-protein kinase JAK2 (Homo sapiens, UniProt O60674, V617F).
Sequence of Tyrosine-protein kinase JAK2 (Homo sapiens, UniProt O60674, V617F) (O60674 whole entry V617F): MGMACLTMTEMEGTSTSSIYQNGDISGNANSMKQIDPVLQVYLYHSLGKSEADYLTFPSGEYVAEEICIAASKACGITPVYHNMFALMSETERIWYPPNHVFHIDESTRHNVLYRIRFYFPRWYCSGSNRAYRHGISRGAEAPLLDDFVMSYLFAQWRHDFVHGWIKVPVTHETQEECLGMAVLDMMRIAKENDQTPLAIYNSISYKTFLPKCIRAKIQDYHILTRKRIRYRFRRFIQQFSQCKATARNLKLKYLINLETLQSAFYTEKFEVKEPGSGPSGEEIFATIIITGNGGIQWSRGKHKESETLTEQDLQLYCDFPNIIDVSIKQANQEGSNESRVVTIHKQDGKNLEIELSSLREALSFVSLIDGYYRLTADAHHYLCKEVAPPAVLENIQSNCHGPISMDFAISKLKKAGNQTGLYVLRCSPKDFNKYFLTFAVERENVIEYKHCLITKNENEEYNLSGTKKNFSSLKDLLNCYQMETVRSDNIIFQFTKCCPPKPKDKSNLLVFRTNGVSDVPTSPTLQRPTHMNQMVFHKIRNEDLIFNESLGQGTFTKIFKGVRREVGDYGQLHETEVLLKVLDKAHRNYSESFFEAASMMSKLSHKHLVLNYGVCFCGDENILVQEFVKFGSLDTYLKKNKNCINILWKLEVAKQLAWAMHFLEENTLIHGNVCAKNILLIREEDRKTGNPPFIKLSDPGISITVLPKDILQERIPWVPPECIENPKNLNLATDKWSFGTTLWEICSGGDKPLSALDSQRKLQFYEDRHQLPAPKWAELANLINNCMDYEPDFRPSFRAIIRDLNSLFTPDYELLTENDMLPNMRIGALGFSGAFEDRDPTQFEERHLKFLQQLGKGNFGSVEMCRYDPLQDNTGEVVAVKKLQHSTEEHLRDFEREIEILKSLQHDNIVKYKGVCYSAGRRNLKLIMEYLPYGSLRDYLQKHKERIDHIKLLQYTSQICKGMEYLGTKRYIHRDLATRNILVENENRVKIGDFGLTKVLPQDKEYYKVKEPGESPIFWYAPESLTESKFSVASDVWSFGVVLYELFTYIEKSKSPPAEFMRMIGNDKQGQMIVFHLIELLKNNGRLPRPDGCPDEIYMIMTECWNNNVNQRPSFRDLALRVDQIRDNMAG
In test [4] the target is Tyrosine-protein kinase SYK (Homo sapiens, UniProt P43405). The experiment in a line: Inhibition of SYK (unknown origin).

Sequence of Tyrosine-protein kinase JAK2 (Homo sapiens, UniProt O60674) (O60674 whole entry): as the sequence (O60674 whole entry V617F) above, with F617V counted along it

Turning to `CC1CC(C)CN(c2ccc(Nc3ncc(C(F)(F)F)c(-c4cc5ccc(C#N)cc5o4)n3)cc2)C1` (stereo not drawn), the values for the half-inhibitory concentration (IC50) in test [1] and in test [2] were 5170 nM and 7090 nM, respectively. Besides, the Ratio IC50 in the test listed under Homo sapiens stood at 0.7.

Take `CS(=O)(=O)N1CCc2oc(-c3ccnc(Nc4ccc(OCCN5CCCC5)cc4)n3)cc2C1`: the IC50 (as a rule, the point on the concentration scale where inhibition reaches its midpoint) in test [1] amounted to 501 nM; in test [2], 164 nM; in test [3], 1260 nM. Moreover, the Ratio IC50 in the test listed under Homo sapiens was determined as 3.1.

In the case of `Cc1cnc(Nc2ccc(OCC(=O)O)cc2)nc1-c1cc2ccccc2o1`, the IC50 in test [1] worked out at 359 nM; in test [2], 16.6 nM. Further, the Ratio IC50 in the test filed under Homo sapiens is 21.7.

Consider `Cc1cnc(Nc2ccc(N3CCOCC3)cc2)nc1-c1cc2cc(C#N)ccc2o1`, for which the IC50 in test [1] stood at 364 nM; in test [2] it was 10.4 nM; in test [3], 3090 nM. Also, the Ratio IC50 in the test listed under Homo sapiens came out at 35.

Turning to `N#CCC(=O)N1CCc2oc(-c3ccnc(Nc4ccc(N5CCOCC5)cc4)n3)cc2C1`, the IC50 in test [1] was 140 nM; in test [2], 13.2 nM; in test [3], 5520 nM. Further, in the test listed under Homo sapiens, the Ratio IC50 was found to be 10.6.

With `Cc1cnc(Nc2ccc(N3CCOCC3)cc2)nc1-c1cc2ccccc2o1`, in test [1], the IC50 was 183 nM.

On to `CS(=O)(=O)N1CCc2oc(-c3ccnc(Nc4ccc(N5CCOCC5)cc4)n3)cc2C1`, for which the IC50 in test [1] is 226 nM; in test [2] it was 42.9 nM. Moreover, the Ratio IC50 in the test listed under Homo sapiens was found to be 5.3.

In the case of `Cc1cnc(Nc2ccc(N3CCOCC3)cc2)nc1-c1cc2c(o1)CCN(S(C)(=O)=O)C2`, the IC50 came out at 23.2 nM in test [1], 49.8 nM in test [4], 0.7 nM in test [2] and 1250 nM in test [3]. In addition, in the test listed under Homo sapiens, the Ratio IC50 is 33.1.

For the compound `CN1CCN(c2ccc(Nc3nccc(-c4cc5c(o4)CCN(S(C)(=O)=O)C5)n3)cc2)CC1`, in test [1], it took 204 nM to reach half-maximal inhibition (IC50).

Take `CCOC(=O)COc1cccc(Nc2ncc(C)c(-c3cc4ccccc4o3)n2)c1`: the IC50 amounted to 87.6 nM in test [1] and 18.9 nM in test [2]. Also, in the test listed under Homo sapiens, the Ratio IC50 amounted to 4.6.

As to `CN1CCN(c2ccc(Nc3nccc(-c4cc5c(o4)CCN(C(=O)CC#N)C5)n3)cc2)CC1`, the concentration for half-maximal inhibition (IC50) in test [1] was found to be 136 nM; in test [2], 53.7 nM; in test [3], 7440 nM. Moreover, in the test filed under Homo sapiens, the Ratio IC50 worked out at 2.5.

With `CCOC(=O)COc1ccc(Nc2ncc(C)c(-c3cc4ccccc4o3)n2)cc1`, the IC50 in test [1] was 1200 nM; in test [2], 324 nM. Besides, the Ratio IC50 in the test filed under Homo sapiens was determined as 3.7.

Turning to `Cc1cnc(Nc2ccc(N3CCOCC3)cc2)nc1-c1cc2cc(COCC(F)(F)F)ccc2o1`, the half-maximal inhibitory concentration (IC50) came to 836 nM in test [1] and 25.7 nM in test [2]. Moreover, in the test filed under Homo sapiens, the Ratio IC50 worked out at 32.5.

In the case of `Cc1cnc(Nc2ccc(/C=C/C(=O)NO)cc2)nc1-c1cc2ccccc2o1`, the IC50 in test [1] turned out to be 1580 nM; in test [2] it was 226 nM. Also, the Ratio IC50 in the test listed under Homo sapiens came out at 7.

For the compound `COc1cc(Nc2ncc(F)c(-c3cc4c(o3)CCN(S(C)(=O)=O)C4)n2)cc(OC)c1OC`, the IC50 in test [1] is 178 nM; in test [2], 9.4 nM. Moreover, the Ratio IC50 in the test filed under Homo sapiens stood at 18.9.

For the compound `CS(=O)(=O)N1CCc2oc(-c3nc(Nc4ccc(OCCN5CCCC5)cc4)ncc3F)cc2C1`, the IC50 worked out at 176 nM in test [1] and 55.4 nM in test [2]. For the same compound, the Ratio IC50 in the test listed under Homo sapiens is 3.2.

Consider `N#Cc1ccc2oc(-c3nc(Nc4ccc(N5CCNCC5)cc4)ncc3C(F)(F)F)cc2c1`, for which the values for the IC50 in test [1] and in test [2] were 202 nM and 137 nM, respectively. The Ratio IC50 in the test listed under Homo sapiens is 1.5.

Source of the values: ChEMBL document CHEMBL3867460, “Identification of 4-(2-furanyl)pyrimidin-2-amines as Janus kinase 2 inhibitors” (Bioorg Med Chem, 2017).
